Legend:
[1] = test system: standard bacterial strains; set-up: method as in PMID 29499458; details: cited from earlier work
[2] = test system: clinical methicillin-resistant strains of S. aureus (MRSA) and S. epidermidis (MRSE); details: cited from earlier work
all strains = experiment: MIC, all strains; format: cell-based
Protocol: The antimicrobial activity of the compounds was tested on Gram-positive bacteria (Staphylococcus aureus NCTC 4163, Staphylococcus aureus ATCC 25923, Staphylococcus aureus ATCC 6538, Staphylococcus aureus ATCC 29213, Staphylococcus epidermidis ATCC 12228, Staphylococcus epidermidis ATCC 35984), Gram-negative rods (Escherichia coli ATCC 10538, Escherichia coli ATCC 25922, Pseudomonas aeruginosa ATCC 15442, Pseudomonas aeruginosa ATCC 27863) and yeasts (Candida albicans ATCC 10231, Candida albicans ATCC 90028, Candida parapsilosis ATCC 22019). Hospital methicillin-resistant strains of Staphylococcus aureus and Staphylococcus epidermidis were obtained from the collection of the Department of Pharmaceutical Microbiology, Medical University of Warsaw, Poland.
Antifungal activities were assessed using Mueller–Hinton agar + 2% glucose and 0.5 µg/mL methylene blue dye medium. Sterile filter paper discs (9 mm diameter, Whatman Number 3 chromatography paper) were dripped with tested compound solutions (in dimethylsulfoxide, DMSO) to load 400 μg of a given compound per disc. […] The results (diameter of the growth inhibition zone) were read after 18 h of incubation at 35 °C. […] Minimal inhibitory concentrations (the lowest concentration of a tested agent that prevents visible growth of a microorganism) were read after 18 h (bacteria) or 24 h (yeasts) of incubation at 35 °C.

[3] = test system: PC3 (human metastatic prostate cancer); experiment: MTT cytotoxicity assay, PC3; format: cell-based; details: PC3, 72 h, MTT
Protocol: (§1) The human primary (SW480), metastatic (SW620) colon cancer, metastatic prostate cancer (PC3) and human immortal keratinocyte (HaCaT) cell lines were purchased from the American Type Culture Collection (ATCC, Rockville, USA). The cells were cultured in medium according to protocols (MEM for SW480 and SW620, RPMI 1640 for PC3 and DMEM for HaCaT cells) supplemented with 10% fetal bovine serum (FBS), penicillin (100 U/mL) and streptomycin (100 μg/mL) and cultured in 37 °C/ 5% CO2 humidified incubator. The cells were cultured until appropriate confluence was achieved (80–90%). Next, they were harvested by treatment with 0.25% trypsin (Gibco Life Technologies, USA) and used for studies.
(§2) Cells without studied compounds in medium were used as a control.
(§3) The cell viability was assessed by determination of MTT salt (3-(4,5-dimethylthiazol-2-yl)-2,5-diphenyltetrazolium bromide) conversion by mitochondrial dehydrogenase. MTT assay was performed as previously described. Experiments were repeated three times. Cell viability was presented as a percentage of MTT reduction in the treated cells versus the control cells. Number of viable cells cultured without studied compounds was assumed to be 100%. Decreased relative MTT level means decreased cell viability. Thiourea complexes with the highest cytotoxic potential assessed by MTT determination (with the lowest IC50) were chosen for subsequent assessments of cytotoxicity mechanisms.

[4] = test system: SW480 (human primary colon cancer); experiment: MTT cytotoxicity assay, SW480; format: cell-based; details: SW480, 72 h
Protocol: as §1, §2, §3

[5] = test system: SW620 (human metastatic colon cancer); experiment: MTT cytotoxicity assay, SW620; format: cell-based; details: SW620, 72 h
Protocol: as §1, §2
as §3, with “viability.” for “viability. Thiourea complexes with the highest cytotoxic potential assessed by MTT determination (with the lowest IC50) were chosen for subsequent assessments of cytotoxicity mechanisms.”

[6] = test system: HaCaT (human immortal keratinocyte cell line); experiment: MTT cytotoxicity assay, HaCaT; format: cell-based; details: HaCaT normal cells, 72 h
Protocol: as §1, §2, §3

colon cancer cells = test system: colon cancer cells; set-up: method as in ref 2S; details: at 100 μM, ref 2S; cited from earlier work
HaCaT cells [7] = test system: HaCaT cells; set-up: method as in ref 1S; details: also printed as 2 mM; ref 1S; cited from earlier work
PANC-1 = test system: PANC-1; set-up: method as in ref 3S; details: PANC-1, 100 μM; ref 3S; cited from earlier work
PC3 cells [8] = test system: PC3 cells; set-up: method as in ref 3S; details: 200 μM, ref 3S; cited from earlier work
HaCaT cell = test system: HaCaT cell; set-up: method as in PMID 30248936; details: at the concentration 8 µM; cited from earlier work
HaCaT cells [9] = experiment: Annexin V-FITC/PI flow cytometry, HaCaT; format: cell-based, human; details: 72 h
Protocol: (§4) The cells were cultured and harvested under the conditions described in the cell culture section. […] The effect of these compounds on the process of early and late apoptosis and necrosis was determined, as described previously, by dual staining with annexin V-FITC and propidium iodide according to manufacturer’s protocol (Becton Dickinson). The cells that were annexin V-FITC positive and PI-negative were identified as early apoptotic and annexin V-FITC and PI-positive as late apoptotic or necrotic.

SW620 cells = experiment: Annexin V-FITC/PI flow cytometry, SW620; format: cell-based, human; details: SW620, 72 h
Protocol: as §4

HaCaT cells [10] = experiment: LDH release assay, HaCaT; format: cell-based, human; details: doxorubicin (1.5 μM stated for the cancer lines)
Protocol: The presence of lactate dehydrogenase (LDH) in culture medium indicates a disturbance of the integrity of the cellular membrane. The LDH activity was performed after 72 h incubation of cells (1 × 10^4 cells per well) in 96-well plates with selected compounds according to manufacturer’s protocol (Roche Diagnostics, Germany), as was described by Chrzanowska et al.. Compound mediated cytotoxicity was determined using equation: ((A test sample−A low control)/ (A high control−A low control)) × 100% (A-absorbance), where “low control” means cells in medium with 2% FBS without tested compounds, and “high control” means cells incubated in medium with 2% FBS and 1% Triton X-100 (100% LDH release). The cytotoxicity was expressed as percentage of LDH release as compared with the maximum release of LDH from Triton-X-100-treated cells.

SW480 cells = experiment: Annexin V-FITC/PI flow cytometry, SW480; format: cell-based, human; details: SW480, 72 h
Protocol: as §4

interleukin-6 (IL-6) = experiment: IL-6 level assay (ELISA); format: cell-based, human; details: PC3, IC50 dose, 72 h
Protocol: IL-6 concentration at all studied cancer cells and normal HaCaT cell lines was measured by ELISA kit (Diaclon SAS Besancon Cedex, France). […] IL-6 in cell culture supernatant was measured using enzyme-linked immunosorbent assay in accordance with the manufacturer’s protocol.

PC3 cells [11] = experiment: Annexin V-FITC/PI flow cytometry, PC3; format: cell-based, human; details: PC3, 72 h
Protocol: as §4

In the case of “copper (II) complex of 1-(3-chloro-4-fluorophenyl)-3-[3-trifluoromethyl)phenylthiourea”, the MIC [1] is listed as 4 to 256 µg/mL and the MIC [2] is listed as 4 to 8 µg/mL.
Compound `[Cl][Cu][Cl]` [CuCl2, copper (II) chloride, reference compound] has an MIC (all strains) of no less than 128 µg/mL, an IC50 [3] of 106 ± 6.3 µM and an IC50 [4] of 109 ± 7.6 µM. For the same compound, the IC50 [5] was 96.3 ± 5.2 µM, the IC50 [6] was 114 ± 4.8 µM and the IC50 ([6]; listed as copper (II) chloride) was greater than 100 µM.
For `CN(C)C=O` [DMF, dimethylformamide], the LDH release (colon cancer cells) is given as “not increase LDH release”, the “concentration at which DMF influenced HaCaT cells” value (HaCaT cells [7]) is given as 140 µg/mL and the apoptosis (PANC-1) is given as 30%. The apoptosis (PC3 cells [8]) was 85%.
For `O=[N+]([O-])c1cc(NC(=S)Nc2ccc(Cl)c(Cl)c2)ccc1Cl` [Compound L5, 1-(4-chloro-3-nitrophenyl)-3-(3,4-dichlorophenyl)thiourea], the “decrease in HaCaT cell viability” value (HaCaT cell) is listed as “approximately 20%”.
With `COc1cccc2c1C(=O)c1c(O)c3c(c(O)c1C2=O)C[C@@](O)(C(=O)CO)C[C@@H]3O[C@H]1C[C@H](N)[C@H](O)[C@H](C)O1` [Doxorubicin, reference compound] the “cells at the necrotic stage” value (HaCaT cells [9]) was 42%, the “cells at the necrotic stage” value (SW620 cells) was 51% and the IC50 ([4]; Homo sapiens) was 0.75 ± 0.1 µM. The LDH release (HaCaT cells [10]) was 80%, the “cells at the necrotic stage” value (SW480 cells) was 86% and the “reduction of IL-6 secretion, times” value (interleukin-6 (IL-6)) was “almost twofold”. For the same compound, the IC50 ([6]; Homo sapiens) was 0.29 ± 0.1 µM, the “cells at the necrotic stage” value (PC3 cells [11]) was 50% and the “late apoptosis, % of cells” value (PC3 cells [11]) was 23%.
In the case of `N.N.[Cl][Pt][Cl]` [Cisplatin, reference compound], the IC50 [4] is reported as 10.4 ± 0.9 µM, the IC50 [5] is reported as 6.7 ± 1.1 µM and the IC50 [6] is reported as 6.3 ± 0.7 µM.

From article PMC8584173, “The Cytotoxic Effect of Copper (II) Complexes with Halogenated 1,3-Disubstituted Arylthioureas on Cancer and Bacterial Cells” (International Journal of Molecular Sciences, 2021)
